From EP4610269A1, “UROKINASE PLASMINOGEN ACTIVATOR SURFACE RECEPTOR (UPAR) LIGANDS FOR DIAGNOSTIC OR THERAPEUTIC USE” (3B Pharmaceuticals GmbH, priority 2024, dated 2025)
Where two headings read alike, the source gives them in different places. Where a SMILES comes first, the peptide text is derived from it. Bridges are numbered along the chain shown (N, C = ends). [ ]: non-standard residue; d: D form. The star is where a group is joined. DOTA = O=C(O)CN1CCN(CC(=O)O)CCN(CC(=O)*)CCN(CC(=O)O)CC1; Pro(cis-4-F) = O=C(O)[C@@H]1C[C@H](F)CN1; Phe(2-Cl) = N[C@@H](Cc1ccccc1Cl)C(=O)O; Pro(4R-NH2) = N[C@H]1CN[C@H](C(=O)O)C1; 2Nal = N[C@@H](Cc1ccc2ccccc2c1)C(=O)O; Dopa = N[C@@H](Cc1ccc(O)c(O)c1)C(=O)O; cisHyp = O=C(O)[C@@H]1C[C@H](O)CN1; Hyp = O=C(O)[C@@H]1C[C@@H](O)CN1; hPhe = N[C@@H](CCc1ccccc1)C(=O)O; Pentanoyl(4-Me) = CC(C)CCC(=O)*; Cit = NC(=O)NCCC[C@H](N)C(=O)O; Butoxycarbonyl = CCCCOC(=O)*; Api = NC1(C(=O)O)CCNCC1; Nva = CCC[C@H](N)C(=O)O; Pentanoyl = CCCCC(=O)*; Aib = CC(C)(N)C(=O)O; βAla = NCCC(=O)O

What was measured:
[1] = target: T1, uPAR-expressing HEC-265 human endometrial adenocarcinoma cells (Homo sapiens, UniProt Q03405); assay: Competitive FACS binding assay; conditions: pIC50 category of FACS binding
T1 construct: Cell surface uPAR-expressing HEC-265 human endometrial adenocarcinoma cells; host or cells: HEC-265
How it was run: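 Competitive displacement of a 10 nM biotinylated peptide from HEC-265 cells (1 h, 4 °C, PBS/1% BSA), detected via APC-streptavidin by flow cytometry. pIC50 from four-parameter logistic fit of median fluorescence versus concentration.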

[2] = target: T2, human uPAR (uPAR-Fc) (Homo sapiens, UniProt Q03405); assay: Surface plasmon resonance (SPR) assay, single cycle kinetics; format: binding; conditions: pKD category for uPAR SPR activity assay, uPAR-Fc on Protein A-Chip, 25°C, read-out: pKD CAT (converted)
T2 construct: comprising amino acids Leu23-Arg303 according to UniProt entry Q03405.1; purchased R&D Systems 10378-UK-100
How it was run: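 uPAR-Fc (Leu23-Arg303 extracellular domains, human IgG1 Fc) captured on Protein A chip to ~2000 RU; single-cycle kinetics at 25°C in HEPES running buffer pH 7.4 with 0.1% DMSO. KD from double-referenced sensorgrams fitted to 1:1 Langmuir model, reported as pKD.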

T2 sequence (Q03405 23-303): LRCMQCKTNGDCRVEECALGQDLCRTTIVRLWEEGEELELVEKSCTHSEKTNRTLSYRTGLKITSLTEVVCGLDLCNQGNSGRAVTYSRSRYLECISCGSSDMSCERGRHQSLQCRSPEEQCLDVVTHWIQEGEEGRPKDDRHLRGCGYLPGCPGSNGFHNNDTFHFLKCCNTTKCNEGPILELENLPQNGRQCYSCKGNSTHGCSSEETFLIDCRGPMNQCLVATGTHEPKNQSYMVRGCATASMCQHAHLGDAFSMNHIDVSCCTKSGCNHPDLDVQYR
T1 sequence (Q03405 23-335): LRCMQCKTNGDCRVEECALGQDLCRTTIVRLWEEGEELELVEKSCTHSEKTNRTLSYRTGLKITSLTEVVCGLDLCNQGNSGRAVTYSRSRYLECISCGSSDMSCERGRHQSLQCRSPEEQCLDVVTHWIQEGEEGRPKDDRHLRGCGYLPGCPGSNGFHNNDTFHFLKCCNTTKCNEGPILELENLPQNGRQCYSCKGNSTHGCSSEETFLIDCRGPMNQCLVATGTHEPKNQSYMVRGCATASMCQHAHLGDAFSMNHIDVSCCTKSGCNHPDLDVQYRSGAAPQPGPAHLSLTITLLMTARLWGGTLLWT

SMILES: CCCCOC(=O)N[C@H]1CSSC[C@@H](C(N)=O)NC(=O)[C@H](CCC)NC(=O)[C@H]([C@@H](C)CC)NC(=O)[C@@H]2C[C@@H](O)CN2C(=O)[C@@H]2C[C@@H](O)CN2C(=O)[C@H](Cc2ccccc2)NC(=O)[C@H](Cc2ccc(O)c(O)c2)NC(=O)[C@H](CCCCNC(=O)CN2CCN(CC(=O)O)CCN(CC(=O)O)CCN(CC(=O)O)CC2)NC(=O)[C@H]([C@@H](C)O)NC1=O [UPAR-284, Butoc-[Cys-Thr-Lys(DOTA)-Dopa-Phe-Hyp-Hyp-Ile-Nva-Cys]-NH2] (Butoxycarbonyl-CTK(DOTA)[Dopa]F[Hyp][Hyp]I[Nva]C-NH2; disulfide 1-10)
- IC50 [1]: ≤ 10 nM
- Kd [2]: < 1.58 nM

SMILES: CCCCC(=O)N[C@H]1CSSC[C@@H](C(N)=O)NC(=O)[C@H](CCC)NC(=O)[C@H]([C@@H](C)CC)NC(=O)[C@@H]2C[C@@H](O)CN2C(=O)[C@@H]2CCCN2C(=O)[C@H](Cc2ccccc2)NC(=O)[C@H](Cc2ccc(O)cc2)NC(=O)[C@H](CCC(N)=O)NC(=O)[C@H](CC(C)C)NC1=O [UPAR-391, Pent-[Cys-Leu-Gln-Tyr-Phe-Pro-Hyp-Ile-Nva-Cys]-NH2] (Pentanoyl-CLQYFP[Hyp]I[Nva]C-NH2; disulfide 1-10)
- IC50 [1]: ≤ 10 nM
- Kd ([2]; single cycle kinetics): < 1.58 nM

SMILES: CCCCC(=O)N[C@H]1CSSC[C@@H](C(N)=O)NC(=O)[C@H](CCC)NC(=O)[C@H]([C@@H](C)CC)NC(=O)C(C)(C)NC(=O)[C@@H]2CCCN2C(=O)[C@H](Cc2ccccc2)NC(=O)[C@H](Cc2ccc(O)cc2)NC(=O)[C@H](CCCCNC(=O)CN2CCN(CC(=O)O)CCN(CC(=O)O)CCN(CC(=O)O)CC2)NC(=O)[C@H](CCCNC(N)=O)NC1=O [UPAR-299, Pent-[Cys-Cit-Lys(DOTA)-Tyr-Phe-Pro-Aib-Ile-Nva-Cys]-NH2] (Pentanoyl-C[Cit]K(DOTA)YFP[Aib]I[Nva]C-NH2; disulfide 1-10)
- IC50 [1]: ≤ 10 nM
- Kd [2]: < 1.58 nM

SMILES: CCCCC(=O)N[C@H]1CSSC[C@@H](C(N)=O)NC(=O)[C@H](CCC)NC(=O)[C@H](CCc2ccccc2)NC(=O)[C@@H]2C[C@@H](O)CN2C(=O)[C@@H]2CCCN2C(=O)[C@H](Cc2ccccc2)NC(=O)[C@H](Cc2ccc(O)cc2)NC(=O)[C@H](CCC(N)=O)NC(=O)[C@H](CCCNC(=N)N)NC1=O [UPAR-461, Pent-[Cys-Arg-Gln-Tyr-Phe-Pro-Hyp-Hfe-Nva-Cys]-NH2] (Pentanoyl-CRQYFP[Hyp][hPhe][Nva]C-NH2; disulfide 1-10)
- IC50 [1]: ≤ 10 nM
- Kd ([2]; single cycle kinetics): < 1.58 nM

SMILES: CC[C@H](C)[C@@H]1NC(=O)[C@@H](C)NC(=O)[C@@H]2CCCN2C(=O)[C@H](Cc2ccccc2)NC(=O)[C@H](Cc2ccc(O)cc2)NC(=O)[C@H](CCCNC(=N)N)NC(=O)[C@H](CCCNC(N)=O)NC(=O)[C@@H](NC(=O)CCC(C)C)CSSC[C@@H](C(N)=O)NC(=O)[C@H](CC(C)C)NC1=O [UPAR-160, iHex-[Cys-Cit-Arg-Tyr-Phe-Pro-ala-Ile-Leu-Cys]-NH2] ({Pentanoyl(4-Me)}-C[Cit]RYFP[dA]ILC-NH2; disulfide 1-10)
- IC50 [1]: ≤ 10 nM
- Kd [2]: < 1.58 nM

SMILES: CC[C@H](C)[C@@H]1NC(=O)[C@@H](C)NC(=O)[C@@H]2CCCN2C(=O)[C@H](Cc2ccccc2)NC(=O)[C@H](Cc2ccc(O)cc2)NC(=O)[C@H](CCC(N)=O)NC(=O)[C@@H](CCCCNC(=O)CN2CCN(CC(=O)O)CCN(CC(=O)O)CCN(CC(=O)O)CC2)NC(=O)[C@@H](NC(=O)CCC(C)C)CSSC[C@@H](C(N)=O)NC(=O)[C@H](CC(C)C)NC1=O [UPAR-130, iHex-[Cys-lys(DOTA)-Gln-Tyr-Phe-Pro-ala-Ile-Leu-Cys]-NH2] ({Pentanoyl(4-Me)}-C[dK](DOTA)QYFP[dA]ILC-NH2; disulfide 1-10)
- IC50 [1]: ≥ 126 nM
- Kd [2]: > 100 nM

SMILES: CCCCOC(=O)N[C@H]1CSSC[C@@H](C(=O)NCCC(=O)O)NC(=O)[C@H](CCC)NC(=O)[C@H]([C@@H](C)CC)NC(=O)[C@@H]2C[C@@H](O)CN2C(=O)[C@@H]2C[C@H](F)CN2C(=O)[C@H](Cc2ccccc2)NC(=O)[C@H](Cc2ccc(O)cc2)NC(=O)[C@H](CCCCNC(=O)CN2CCN(CC(=O)O)CCN(CC(=O)O)CCN(CC(=O)O)CC2)NC(=O)[C@H]([C@@H](C)O)NC1=O [UPAR-127, Butoc-[Cys-Thr-Lys(DOTA)-Tyr-Phe-4Cfp-Hyp-Ile-Nva-Cys]-Bal-OH] (Butoxycarbonyl-CTK(DOTA)YF[Pro(cis-4-F)][Hyp]I[Nva]C[βAla]-OH; disulfide 1-10)
- IC50 [1]: ≤ 10 nM
- Kd [2]: 1.58 to 10 nM

SMILES: CC[C@H](C)[C@@H]1NC(=O)[C@@H](C)NC(=O)[C@@H]2CCCN2C(=O)[C@H](Cc2ccc3ccccc3c2)NC(=O)[C@H](Cc2ccc(O)cc2)NC(=O)[C@H](CCC(N)=O)NC(=O)[C@H](CCCNC(N)=O)NC(=O)[C@@H](NC(=O)CCC(C)C)CSSC[C@@H](C(N)=O)NC(=O)[C@H](CC(C)C)NC1=O [UPAR-147, iHex-[Cys-Cit-Gln-Tyr-2Ni-Pro-ala-Ile-Leu-Cys]-NH2] ({Pentanoyl(4-Me)}-C[Cit]QY[2Nal]P[dA]ILC-NH2; disulfide 1-10)
- IC50 [1]: 12.6 to 31.6 nM
- Kd [2]: 10 to 100 nM

SMILES: CCCCC(=O)N[C@H]1CSSC[C@@H](C(N)=O)NC(=O)[C@H](CCC)NC(=O)[C@H]([C@@H](C)CC)NC(=O)[C@@H]2C[C@@H](N)CN2C(=O)[C@@H]2CCCN2C(=O)[C@H](Cc2ccccc2)NC(=O)[C@H](Cc2ccc(O)cc2)NC(=O)[C@H](CCCNC(=N)N)NC(=O)[C@H](CCCNC(=N)N)NC1=O [UPAR-313, Pent-[Cys-Arg-Arg-Tyr-Phe-Pro-Tap-Ile-Nva-Cys]-NH2] (Pentanoyl-CRRYFP[Pro(4R-NH2)]I[Nva]C-NH2; disulfide 1-10)
- IC50 [1]: ≤ 10 nM
- Kd [2]: < 1.58 nM

SMILES: CC[C@H](C)[C@@H]1NC(=O)[C@@H](C)NC(=O)[C@@H]2CCCN2C(=O)[C@H](Cc2ccccc2Cl)NC(=O)[C@H](Cc2ccc(O)cc2)NC(=O)[C@H](CCC(N)=O)NC(=O)[C@H](CCCNC(N)=O)NC(=O)[C@@H](NC(=O)CCC(C)C)CSSC[C@@H](C(N)=O)NC(=O)[C@H](CC(C)C)NC1=O [UPAR-221, iHex-[Cys-Cit-Gln-Tyr-Ocf-Pro-ala-Ile-Leu-Cys]-NH2] ({Pentanoyl(4-Me)}-C[Cit]QY[Phe(2-Cl)]P[dA]ILC-NH2; disulfide 1-10)
- IC50 [1]: ≤ 10 nM
- Kd [2]: < 1.58 nM

SMILES: CC[C@H](C)[C@@H]1NC(=O)C2(CCN(C(=O)CN3CCN(CC(=O)O)CCN(CC(=O)O)CCN(CC(=O)O)CC3)CC2)NC(=O)[C@@H]2CCCN2C(=O)[C@H](Cc2ccccc2)NC(=O)[C@H](Cc2ccc(O)cc2)NC(=O)[C@H](CCC(N)=O)NC(=O)[C@H](CCCNC(N)=O)NC(=O)[C@@H](NC(=O)CCC(C)C)CSSC[C@@H](C(N)=O)NC(=O)[C@H](CC(C)C)NC1=O [UPAR-219, iHex-[Cys-Cit-Gln-Tyr-Phe-Pro-Apc(DOTA)-Ile-Leu-Cys]-NH2] ({Pentanoyl(4-Me)}-C[Cit]QYFP[Api](DOTA)ILC-NH2; disulfide 1-10)
- IC50 [1]: ≤ 10 nM
- Kd [2]: 1.58 to 10 nM

SMILES: CCCCC(=O)N[C@H]1CSSC[C@@H](C(N)=O)NC(=O)[C@H](CCC)NC(=O)[C@H]([C@@H](C)CC)NC(=O)[C@@H]2C[C@@H](O)CN2C(=O)[C@@H]2C[C@H](O)CN2C(=O)[C@H](Cc2ccccc2)NC(=O)[C@H](Cc2ccc(O)cc2)NC(=O)[C@H](CCCCNC(=O)CN2CCN(CC(=O)O)CCN(CC(=O)O)CCN(CC(=O)O)CC2)NC(=O)[C@H]([C@@H](C)O)NC1=O [UPAR-388, Pent-[Cys-Thr-Lys(DOTA)-Tyr-Phe-Chy-Hyp-Ile-Nva-Cys]-NH2] (Pentanoyl-CTK(DOTA)YF[cisHyp][Hyp]I[Nva]C-NH2; disulfide 1-10)
- IC50 [1]: ≤ 10 nM
- Kd ([2]; single cycle kinetics): 1.58 to 10 nM
